The values that follow come from patent US9050326B2, “Amido derivatives-contained pharmaceutical composition” (priority 2008, dated 2015).

Series [1] in a line: Solubility, dissolution test of the 15th Edition of the Japanese Pharmacopoeia. It is filed as physicochemical. The conditions noted are these: thermodynamic from solid, without storage, read-out: Solubility of compound A.
Series [2] in a line: Chemical stability against heat in manufacturing a solid dispersion with a twin screw extruder (melting method). It is filed as physicochemical. The source says: Salts, a clathrate, a solid dispersion, and the like are known as methods of improving the solubility of a slightly water-soluble drug. However, with respect to compound A per se, it is expected that a salt of compound A is desalted, even if the solubility is improved, and that the inclusion ability of cyclodextrin, which is commonly used as a host of clathrates, is low.

Values after ≈ are worked out from the molar mass of the structure shown.

With `Cc1cccc(C)c1N(CC(=O)Nc1ccc(-c2ncon2)cc1)C(=O)C1CCS(=O)(=O)CC1` [Compound A, N-(2,6-Dimethylphenyl)-N-(2-{[4-(1,2,4-oxadiazol-3-yl)phenyl]amino}-2-oxoethyl)tetrahydro-2H-thiopyran-4-carboxamide 1,1-dioxide], the solubility (commonly the concentration that dissolves in the medium under given conditions) in series [1] amounted to 2 µg/mL (≈ 4.14 µM). In series [2], the “Chemical stability against heat” value is “low chemical stability against heat”.
